In ChEMBL document CHEMBL1144636, “Quinazolinone fungal efflux pump inhibitors. Part 3: (N-methyl)piperazine variants and pharmacokinetic optimization” (Bioorg Med Chem Lett, 2007):

Columns and labels:
Candida albicans = experiment: In vitro potentiation of fluconazole antifungal activity in Candida albicans YEM15 assessed as 8 fold reduction in fluconazole MIC; assay type: functional
[1] = Stability in Sprague-Dawley rat hepatocyte after 24 hrs; assay type: ADME, cell-based; details: hepatocytes, read-out: Stability
Nakaseomyces glabratus = experiment: In vitro potentiation of fluconazole antifungal activity in Candida glabrata YEM19 assessed as 8 fold reduction in fluconazole MIC; assay type: functional
Serum = experiment: Protein binding in Sprague-Dawley rat serum; assay type: ADME, cell-free; set-up: concentration or dose not given beside the values
[2] = Total clearance in Sprague-Dawley rat at 5 mg/kg, iv; assay type: ADME, organism-based; set-up: dose 5 mg/kg, route intravenous; details: in vivo

| remaining at 24 h [1] [%] | Activity (Serum) [%] | clearance [2] [L/h/kg] | Compound | Activity (Candida albicans) [µg/mL] | Activity (Nakaseomyces glabratus) [µg/mL] |
| --- | --- | --- | --- | --- | --- |
| 18 | 74 | – | COc1ccc(N(C(=O)Nc2ccc(F)cc2)C(C)c2nc3ccccc3c(=O)n2N2CCN(C)CC2)c(OC)c1 (configuration not stated) | 4 | 4 |
| – | – | – | CNCC(=O)N1CCN(n2c(C(C)N(C(=O)Nc3ccc(F)cc3)c3ccc(OC)cc3OC)nc3ccccc3c2=O)CC1 (configuration not stated) | >32 | 4 |
| – | – | – | COc1ccc(N(C(=O)Nc2ccc(F)cc2)C(C)c2nc3ccccc3c(=O)n2N2CCN(C=O)CC2)c(OC)c1 (configuration not stated) | 2 | 4 |
| – | – | – | COc1ccc(N(C(=O)Nc2ccc(F)cc2)C(C)c2nc3ccccc3c(=O)n2N2CCN(C(=O)[C@H]3CCCN3)CC2)c(OC)c1 (some centres not stated) | >32 | 2 |
| 4 | – | – | COC(=O)N[C@@H]1CCN(C(=O)N2CCN(n3c(C(C)N(C(=O)Nc4ccc(F)cc4)c4ccc(OC)cc4OC)nc4ccccc4c3=O)CC2)C1 (some centres not stated) | 0.25 | 0.5 |
| – | – | – | COc1ccc(N(C(=O)Nc2ccc(F)cc2)C(C)c2nc3ccccc3c(=O)n2N2CCNCC2)c(OC)c1 (configuration not stated) | >32 | 32 |
| – | – | – | COc1ccc(N(C(=O)Nc2ccc(F)cc2)C(C)c2nc3ccccc3c(=O)n2N2CCCCC2)c(OC)c1 (configuration not stated) | >32 | >32 |
| – | – | – | COC(=O)NCC(=O)N1CCN(n2c(C(C)N(C(=O)Nc3ccc(F)cc3)c3ccc(OC)cc3OC)nc3ccccc3c2=O)CC1 (configuration not stated) | >32 | 2 |
| – | 87 | 7.5 | COC(=O)N[C@@H](C)C(=O)N1CCN(n2c([C@H](C)N(C(=O)Nc3ccc(F)cc3)c3ccc(OC)cc3OC)nc3cc(F)ccc3c2=O)CC1 | 0.5 | 0.0625 |
| – | – | – | COc1ccc(N(C(=O)Nc2ccc(F)cc2)C(C)c2nc3ccccc3c(=O)n2N2CCN(C(=O)C3CCCC3)CC2)c(OC)c1 (configuration not stated) | 0.25 | 0.125 |
| 7 | 82 | – | COC(=O)N[C@H](C)C(=O)N1CCN(n2c(C(C)N(C(=O)Nc3ccc(F)cc3)c3ccc(OC)cc3OC)nc3ccccc3c2=O)CC1 (some centres not stated) | 4 | 0.5 |
| – | 98 | 5 | COc1ccc(N(C(=O)Nc2cccc(Cl)c2)C(C)c2nc3ccccc3c(=O)n2N2CCN(C)CC2)c(OC)c1 (configuration not stated) | 1 | 4 |
| 77 | 77 | – | COc1ccc(N(C(=O)Nc2ccc(F)cc2)C(C)c2nc3ccccc3c(=O)n2N2CCN(C(=O)[C@@H]3CCCN3)CC2)c(OC)c1 (some centres not stated) | >32 | 4 |
| – | – | – | COc1ccc(N(C(=O)Nc2ccc(F)cc2)C(C)c2nc3ccccc3c(=O)n2N2CCN(C(=O)C3CCCO3)CC2)c(OC)c1 (configuration not stated) | 0.5 | 0.125 |
| – | – | – | COc1ccc(N(C(=O)Nc2ccc(F)cc2)C(C)c2nc3ccccc3c(=O)n2N2CCN(C(=O)[C@@H]3CCCN3C)CC2)c(OC)c1 (some centres not stated) | 32 | 2 |
| 0 | – | – | COc1ccc(N(C(=O)Nc2ccc(F)cc2)C(C)c2nc3ccccc3c(=O)n2N2CCN(C(=O)N3CCCC3)CC2)c(OC)c1 (configuration not stated) | 0.0625 | <0.03 |

| remaining at 24 h [1] [%] | Activity (Serum) [%] | clearance [2] [L/h/kg] | Compound | Activity (Candida albicans) [µg/mL] | Activity (Nakaseomyces glabratus) [µg/mL] |
| --- | --- | --- | --- | --- | --- |
| – | – | – | COC(=O)N(C)[C@@H](C)C(=O)N1CCN(n2c(C(C)N(C(=O)Nc3ccc(F)cc3)c3ccc(OC)cc3OC)nc3ccccc3c2=O)CC1 (some centres not stated) | 0.5 | 0.5 |
| 39 | 82 | – | COC(=O)N[C@@H](C)C(=O)N1CCN(n2c(C(C)N(C(=O)Nc3ccc(F)cc3)c3ccc(OC)cc3OC)nc3ccccc3c2=O)CC1 (some centres not stated) | 2 | 0.25 |
| – | – | – | COC(=O)N[C@@H](CO)C(=O)N1CCN(n2c(C(C)N(C(=O)Nc3ccc(F)cc3)c3ccc(OC)cc3OC)nc3ccccc3c2=O)CC1 (some centres not stated) | 32 | 8 |
| – | – | – | COC(=O)N[C@H](C(=O)N1CCN(n2c(C(C)N(C(=O)Nc3ccc(F)cc3)c3ccc(OC)cc3OC)nc3ccccc3c2=O)CC1)[C@H](C)O (some centres not stated) | 2 | 2 |
| – | – | – | COc1ccc(N(C(=O)Nc2ccc(F)cc2)C(C)c2nc3ccccc3c(=O)n2N2CCN(C[C@@H]3CCCN3)CC2)c(OC)c1 (some centres not stated) | 32 | 2 |
| 23 | – | – | COC(=O)N[C@H]1CCN(C(=O)N2CCN(n3c(C(C)N(C(=O)Nc4ccc(F)cc4)c4ccc(OC)cc4OC)nc4ccccc4c3=O)CC2)C1 (some centres not stated) | 4 | 0.25 |
| – | – | – | CCOC(=O)N1CCN(n2c(C(C)N(C(=O)Nc3ccc(F)cc3)c3ccc(OC)cc3OC)nc3ccccc3c2=O)CC1 (configuration not stated) | 0.25 | 0.5 |
| – | – | – | CCNC(=O)N1CCN(n2c(C(C)N(C(=O)Nc3ccc(F)cc3)c3ccc(OC)cc3OC)nc3ccccc3c2=O)CC1 (configuration not stated) | 1 | 1 |
| – | – | – | COc1ccc(N(C(=O)Nc2ccc(F)cc2)C(C)c2nc3ccccc3c(=O)n2N2CCN(C(N)=O)CC2)c(OC)c1 (configuration not stated) | 8 | 16 |
| – | – | – | COc1ccc(N(C(=O)Nc2ccc(F)cc2)C(C)c2nc3ccccc3c(=O)n2N2CCN(C(=O)[C@@H]3CCCN3C3CC3)CC2)c(OC)c1 (some centres not stated) | 1 | 0.25 |
| – | – | – | COc1ccc(N(C(=O)Nc2ccc(F)cc2)C(C)c2nc3ccccc3c(=O)n2N2CCN(C(=O)[C@H](C)N3CCCC3)CC2)c(OC)c1 (some centres not stated) | 8 | 0.25 |
| – | – | – | COc1ccc(N(C(=O)Nc2ccc(F)cc2)C(C)c2nc3ccccc3c(=O)n2N2CCN(C(=O)CN3CCCC3)CC2)c(OC)c1 (configuration not stated) | 4 | 1 |
| – | – | – | COc1ccc(N(C(=O)Nc2ccc(F)cc2)C(C)c2nc3ccccc3c(=O)n2N2CCN(C(=O)C[C@@H]3CCCN3)CC2)c(OC)c1 (some centres not stated) | >32 | 0.5 |
| – | – | – | COC(=O)N[C@H](C(=O)N1CCN(n2c(C(C)N(C(=O)Nc3ccc(F)cc3)c3ccc(OC)cc3OC)nc3ccccc3c2=O)CC1)C(C)C (some centres not stated) | 1 | 2 |
| – | – | – | COc1ccc(N(C(=O)Nc2ccc(F)cc2)C(C)c2nc3ccccc3c(=O)n2N2CCN(C(=O)[C@H](C)N)CC2)c(OC)c1 (some centres not stated) | >32 | 4 |
